Consider one compound from patent US10251860B2, “Compounds for bone healing” (University of Pittsburgh—Of the Commonwealth System of …, priority 2015, dated 2019).

“Also recorded” adds a separate entry of the source.

In one experiment the test system is 32D cl 3 cells. Description: Irradiated 32D cl 3 cells, cell count and viability. In kind it is cell-based, murine. The settings on record: 10 μM, 0-7 Gy, day 3 or 5 after irradiation. As for the experimental part: FIGS. 10A-10D provide data from a screening experiment where 32D cl 3 cells were irradiated to doses of 0, 1, 3, 5, or 7 Gy and placed in T25 flasks. Either JP4-039 or MM350 were added at 10 μM and incubated in a CO2 incubator at 37° C. At Day 3 or 5 after irradiation, the cells were counted and the viability determined.

Experiment [1] relates to fibrotic phase associated RNA (TGF-β, TLR4, TLR7), bromodomain transcripts. Briefly: RT-PCR of irradiation induced gene transcripts in lung. The format is in vivo, mouse. The settings on record: 20 Gy thoracic irradiation, MMS350 in drinking water. As for the experimental part:
To isolate different cellular compartments of the lung, mice were sacrificed and the pulmonary cavity was opened, and lungs perfused by injecting 5 ml of phosphate-buffered saline (PBS) into the right ventricle of the heart. To isolate pulmonary endothelial cells, the lungs were filled with 1 ml of dispase (39.65 mg/ml), allowed to collapse, and then expanded with 0.5 ml of a 1% low-melt agarose, which had been stored at 45° C. in a water bath. The lungs were immediately covered with ice and incubated for 2 minutes. […] The cells were analyzed by flow cytometry with PECAM+ endothelial cells and PECAM− and CD45− cells alveolar cells isolated.
RNA was extracted from mouse lung or purified cell populations using the TRIzol reagent (Invitrogen, Carlsbad, Calif.) following the manufacturer's instructions, quantified using a spectrophotometer, and stored at −80° C. […]

Experiment [2] relates to C57BL/6NTac female mice, tibia holes. Description: Bone wound healing in drilled mouse tibias (high resolution CT). In kind it is in vivo. The following applies: day 21. As for the experimental part: Eighteen C57BL/6NTac female mice were divided into 2 groups of 9 mice. The first group was placed on water containing 400 μM MMS350. One week later the MMS350 mice were injected IP with 20 mg/kg MMS350 in water 15 minutes before irradiation. The control mice and the MMS350 treated mice were anesthetized with Nembutal and the right hind leg was irradiated to 20 Gy with the remainder of the mouse shielded from the irradiation. Twenty-four hours later holes were drilled into the tibias of all the mice. The MMS350 treated mice were kept on the MMS350 with the water changed weekly. Twenty-one days later the mice were sacrificed and both tibias removed, and fixed. The tibias were imaged using a high resolution CT. The holes in the tibias were measured and the volume of the holes determined.

With `CC1(C[S+]([O-])CC2(C)COC2)COC1` [Compound 3, 3,3′-Sulfinylbis(methylene)bis(3-methyloxetane)], the “number of cells and viability” value in the experiment with 32D cl 3 cells was “comparable to JP4-039”. Further, the bromodomain transcripts result in experiment [1] is listed as “little effect on bromodomain transcripts”. Moreover, the “expression of fibrosis phase mRNA” value in experiment [1] is on record as “decreased expression of fibrosis phase mRNA expression; also recorded: downregulation of transcription of mRNA associated with the late pulmonary fibrotic reaction”. The “diameter of tibia hole” value in experiment [2] (0 Gy tibia vs control 0 Gy, 400 μM in water plus 20 mg/kg IP) was “significantly smaller”; in experiment [2] (20 Gy irradiated tibia vs control 20 Gy), “significantly smaller”. Further, the “volume of tibia hole” value in experiment [2] (0 Gy+ MMS350 vs control 20 Gy irradiated tibia) and in experiment [2] (20 Gy+ MMS350 vs control 20 Gy irradiated tibia) was “significantly smaller” each time.
